Data as given in publication PMC8843100, “Development of newly synthesised quinazolinone-based CDK2 inhibitors with potent efficacy against melanoma” (Journal of Enzyme Inhibition and Medicinal Chemistry, 2022).

Tests used:
NCI-H460 = experiment: NCI-60 single dose screen, sulforhodamine B; assay type: cell-based, human; conditions: Non-small cell lung cancer NCI-H460; single dose 10^−5 M
In short: (§1)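 Day 0: seeding. Day 1: time-zero plates processed, test plates dosed at 10 µM. Day 3: fixation and sulforhodamine B staining, with inhibition derived versus untreated and time-zero wells.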

CAKI-1 = experiment: NCI-60 single dose screen, sulforhodamine B; assay type: cell-based, human; conditions: Renal cancer CAKI-1; single dose 10^−5 M
In short: as §1

RXF 393 = experiment: NCI-60 single dose screen, sulforhodamine B; assay type: cell-based, human; conditions: Renal cancer RXF 393; single dose 10^−5 M
In short: as §1

SK-MEL-2 = experiment: NCI-60 single dose screen, sulforhodamine B; assay type: cell-based, human; conditions: Melanoma SK-MEL-2; single dose 10^−5 M
In short: as §1

COLO 205 = experiment: NCI-60 single dose screen, sulforhodamine B; assay type: cell-based, human; conditions: Colon cancer COLO 205; single dose 10^−5 M
In short: as §1

MALME-3M = experiment: NCI-60 single dose screen, sulforhodamine B; assay type: cell-based, human; conditions: Melanoma MALME-3M; single dose 10^−5 M
In short: as §1

OVCAR-3 = experiment: NCI-60 single dose screen, sulforhodamine B; assay type: cell-based, human; conditions: Ovarian cancer OVCAR-3; single dose 10^−5 M
In short: as §1

UO-31 = experiment: NCI-60 single dose screen, sulforhodamine B; assay type: cell-based, human; conditions: Renal cancer UO-31; single dose 10^−5 M
In short: as §1

CCRF-CEM = experiment: NCI-60 single dose screen, sulforhodamine B; assay type: cell-based, human; conditions: Leukaemia CCRF-CEM; single dose 10^−5 M
In short: as §1

HS 578T = experiment: NCI-60 single dose screen, sulforhodamine B; assay type: cell-based, human; conditions: Breast cancer HS 578T; single dose 10^−5 M
In short: as §1

NCI/ADR-RES = experiment: NCI-60 single dose screen, sulforhodamine B; assay type: cell-based, human; conditions: Ovarian cancer NCI/ADR-RES; single dose 10^−5 M
In short: as §1

SK-MEL-5 = experiment: NCI-60 single dose screen, sulforhodamine B; assay type: cell-based, human; conditions: Melanoma SK-MEL-5; single dose 10^−5 M
In short: as §1

SF-268 = experiment: NCI-60 single dose screen, sulforhodamine B; assay type: cell-based, human; conditions: CNS cancer SF-268; single dose 10^−5 M
In short: as §1

SF-539 = experiment: NCI-60 single dose screen, sulforhodamine B; assay type: cell-based, human; conditions: CNS cancer SF-539; single dose 10^−5 M
In short: as §1

BT-549 = experiment: NCI-60 single dose screen, sulforhodamine B; assay type: cell-based, human; conditions: Breast cancer BT-549; single dose 10^−5 M
In short: as §1

EKVX = experiment: NCI-60 single dose screen, sulforhodamine B; assay type: cell-based, human; conditions: Non-small cell lung cancer EKVX; single dose 10^−5 M
In short: as §1

OVCAR-4 = experiment: NCI-60 single dose screen, sulforhodamine B; assay type: cell-based, human; conditions: Ovarian cancer OVCAR-4; single dose 10^−5 M
In short: as §1

HOP-62 = experiment: NCI-60 single dose screen, sulforhodamine B; assay type: cell-based, human; conditions: Non-small cell lung cancer HOP-62; single dose 10^−5 M
In short: as §1

UACC-257 = experiment: NCI-60 single dose screen, sulforhodamine B; assay type: cell-based, human; conditions: Melanoma UACC-257; single dose 10^−5 M
In short: as §1

786-0 = experiment: NCI-60 single dose screen, sulforhodamine B; assay type: cell-based, human; conditions: Renal cancer 786-0; single dose 10^−5 M
In short: as §1

UACC-62 = experiment: NCI-60 single dose screen, sulforhodamine B; assay type: cell-based, human; conditions: Melanoma UACC-62; single dose 10^−5 M
In short: as §1

A498 = experiment: NCI-60 single dose screen, sulforhodamine B; assay type: cell-based, human; conditions: Renal cancer A498; single dose 10^−5 M
In short: as §1

HOP-92 = experiment: NCI-60 single dose screen, sulforhodamine B; assay type: cell-based, human; conditions: Non-small cell lung cancer HOP-92; single dose 10^−5 M
In short: as §1

| Structure (SMILES) | GI% at 10^−5 M (NCI-H460) | GI% at 10^−5 M (CAKI-1) | GI% at 10^−5 M (RXF 393) | GI% at 10^−5 M (SK-MEL-2) | GI% at 10^−5 M (COLO 205) | GI% at 10^−5 M (MALME-3M) | GI% at 10^−5 M (OVCAR-3) | GI% at 10^−5 M (UO-31) [%] | GI% at 10^−5 M (CCRF-CEM) | GI% at 10^−5 M (HS 578T) | GI% at 10^−5 M (NCI/ADR-RES) | GI% at 10^−5 M (SK-MEL-5) | GI% at 10^−5 M (SF-268) | GI% at 10^−5 M (SF-539) | GI% at 10^−5 M (BT-549) | GI% at 10^−5 M (EKVX) | GI% at 10^−5 M (OVCAR-4) | GI% at 10^−5 M (HOP-62) | GI% at 10^−5 M (UACC-257) | GI% at 10^−5 M (786-0) | further results |
| --- | --- | --- | --- | --- | --- | --- | --- | --- | --- | --- | --- | --- | --- | --- | --- | --- | --- | --- | --- | --- | --- |
| COc1cc(C=Nn2c(COc3ccccc3)nc3ccccc3c2=O)ccc1O [Compound 6a, 3-((4-hydroxy-3-methoxybenzylidene)amino)-2-(phenoxymethyl)quinazolin-4(3H)-one] | – (– means GI < 10%) | – (– means GI < 10%) | – (– means GI < 10%) | – (– means GI < 10%) | – (– means GI < 10%) | – (– means GI < 10%) | – (– means GI < 10%) | 15.75 | – (– means GI < 10%) | – (– means GI < 10%) | – (– means GI < 10%) | – (– means GI < 10%) | – (– means GI < 10%) | – (– means GI < 10%) | – (– means GI < 10%) | – (– means GI < 10%) | – (– means GI < 10%) | – (– means GI < 10%) | – (– means GI < 10%) | – (– means GI < 10%) | GI% at 10^−5 M (UACC-62): – (– means GI < 10%); GI% at 10^−5 M (A498): – (– means GI < 10%); GI% at 10^−5 M (HOP-92): – (– means GI < 10%); melting point: 191 to 193 °C |
| O=c1c2ccccc2nc(COc2ccccc2)n1N=CC=Cc1ccccc1 [Compound 6b, 2-(phenoxymethyl)-3-((3-phenylallylidene)amino)quinazolin-4(3H)-one] | – (– means GI < 10%) | – (– means GI < 10%) | – (– means GI < 10%) | – (– means GI < 10%) | – (– means GI < 10%) | – (– means GI < 10%) | – (– means GI < 10%) | 10.2 | 15.66% | – (– means GI < 10%) | – (– means GI < 10%) | – (– means GI < 10%) | – (– means GI < 10%) | – (– means GI < 10%) | – (– means GI < 10%) | 13.78% | 10.01% | – (– means GI < 10%) | – (– means GI < 10%) | – (– means GI < 10%) | GI% at 10^−5 M (UACC-62): – (– means GI < 10%); GI% at 10^−5 M (A498): – (– means GI < 10%); GI% at 10^−5 M (HOP-92): – (– means GI < 10%); melting point: 211 to 213 °C |
| CN1CCN(CC(=O)Nn2c(COc3ccccc3)nc3ccccc3c2=O)CC1 [Compound 8a, 2–(4-methylpiperazin-1-yl)-N-(4-oxo-2-(phenoxymethyl)quinazolin-3(4H)-yl)acetamide] | – (– means GI < 10%) | 28.85% | – (– means GI < 10%) | 12.84% | 15.89% | 20.47% | – (– means GI < 10%) | 29.32 | 10.65% | 13.94% | 28.41% | 17.11% | – (– means GI < 10%) | 11.37% | – (– means GI < 10%) | 13.93% | – (– means GI < 10%) | – (– means GI < 10%) | – (– means GI < 10%) | – (– means GI < 10%) | GI% at 10^−5 M (UACC-62): 30.69%; GI% at 10^−5 M (A498): 18.24%; GI% at 10^−5 M (HOP-92): – (– means GI < 10%); melting point: 158 to 160 °C |
| O=C(CN1CCN(c2ccccc2)CC1)Nn1c(COc2ccccc2)nc2ccccc2c1=O [Compound 8b, N-(4-oxo-2-(phenoxymethyl)quinazolin-3(4H)-yl)-2–(4-phenylpiperazin-1-yl)acetamid] | – (– means GI < 10%) | – (– means GI < 10%) | – (– means GI < 10%) | – (– means GI < 10%) | – (– means GI < 10%) | – (– means GI < 10%) | – (– means GI < 10%) | 20.18 | – (– means GI < 10%) | 10.4% | – (– means GI < 10%) | – (– means GI < 10%) | – (– means GI < 10%) | – (– means GI < 10%) | – (– means GI < 10%) | – (– means GI < 10%) | – (– means GI < 10%) | – (– means GI < 10%) | – (– means GI < 10%) | – (– means GI < 10%) | GI% at 10^−5 M (UACC-62): – (– means GI < 10%); GI% at 10^−5 M (A498): – (– means GI < 10%); GI% at 10^−5 M (HOP-92): – (– means GI < 10%); melting point: 115 to 117 °C |
| COc1ccc(N2CCN(CC(=O)Nn3c(COc4ccccc4)nc4ccccc4c3=O)CC2)cc1 [Compound 8c, 2–(4-(4-methoxyphenyl)piperazin-1-yl)-N-(4-oxo-2-(phenoxymethyl)quinazolin-3(4H)-yl)acetamide] | – (– means GI < 10%) | – (– means GI < 10%) | – (– means GI < 10%) | – (– means GI < 10%) | – (– means GI < 10%) | – (– means GI < 10%) | – (– means GI < 10%) | 10.03 | – (– means GI < 10%) | – (– means GI < 10%) | – (– means GI < 10%) | – (– means GI < 10%) | – (– means GI < 10%) | – (– means GI < 10%) | – (– means GI < 10%) | – (– means GI < 10%) | – (– means GI < 10%) | – (– means GI < 10%) | – (– means GI < 10%) | – (– means GI < 10%) | GI% at 10^−5 M (UACC-62): – (– means GI < 10%); GI% at 10^−5 M (A498): 15.04%; GI% at 10^−5 M (HOP-92): – (– means GI < 10%); melting point: 100 to 102 °C |
